Reference: PubChem BioAssay AID330 (DTP/NCI, 2004)
Values joined by “and” are separate entries in the source; they are usually repeats but may differ in a detail not shown here. Equal values may be shown once. Toxic doses and inconclusive results are not listed. The calls were made as follows: active = survival T/C of 150% or more; inactive = T/C below 125% in these data.

System: P388 leukemia ip, CD2F1 mice, survival T/C
Test: NCI In Vivo Anticancer Drug Screen. Data for tumor model P388 Leukemia (intraperitoneal) in CD2F1 (CDF1) mice
Details: endpoint: median survival time, higher = longer survival
Outline: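 Mice carrying the transplanted tumor received test compound or vehicle. Survival was recorded in each group, and the value is the treated-group measurement divided by that of the vehicle-treated control group.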

[1] = dose: 12.5 mg/kg/injection, schedule: Q01DX009 (ip), vehicle: saline with Tween-80
[2] = dose: 25.0 mg/kg/injection, schedule: Q01DX009 (ip), vehicle: saline with Tween-80
[3] = dose: 50.0 mg/kg/injection, schedule: Q01DX009 (ip), vehicle: saline with Tween-80
[4] = dose: 60.0 mg/kg/injection, schedule: Q01DX005 (ip), vehicle: saline with Tween-80
[5] = dose: 120.0 mg/kg/injection, schedule: Q01DX005 (ip), vehicle: saline with Tween-80
[6] = dose: 240.0 mg/kg/injection, schedule: Q01DX005 (ip), vehicle: saline with Tween-80
[7] = dose: 50.0 mg/kg/injection, schedule: Q01DX009 (ip), vehicle: Klucel (hydroxypropylcellulose) (HPC)
[8] = dose: 100.0 mg/kg/injection, schedule: Q01DX009 (ip), vehicle: Klucel (hydroxypropylcellulose) (HPC)
[9] = dose: 200.0 mg/kg/injection, schedule: Q01DX009 (ip), vehicle: Klucel (hydroxypropylcellulose) (HPC)
[10] = dose: 25.0 mg/kg/injection, schedule: Q01DX009 (ip), vehicle: Klucel (hydroxypropylcellulose) (HPC)
[11] = dose: 50.0 mg/kg/injection, schedule: Q04DX003 (ip), vehicle: saline
[12] = dose: 100.0 mg/kg/injection, schedule: Q04DX003 (ip), vehicle: saline
[13] = dose: 200.0 mg/kg/injection, schedule: Q04DX003 (ip), vehicle: saline

Measured: T/C

c1ccc(-c2nc3ccccc3nc2-c2ccc(-c3ccc(-c4nc5ccccc5nc4-c4ccccc4)cc3)cc2)cc1
inactive: dose: 6.25 mg/kg/injection, schedule: Q01DX009 (ip), vehicle: saline with Tween-80 88 % of control and 96 % of control | [1] 101 % of control and 90 % of control | [2] 99 % of control and 120 % of control and 92 % of control | [3] 114 % of control and 87 % of control

CC1(C)N=C(N)N=C(N)N1c1cccc(OCCOc2ccccc2[N+](=O)[O-])c1
inactive: [4] 104 % of control | [5] 95 % of control | [6] 98 % of control

O=C1NC(N(CCCl)CCCl)=NC1(c1ccccc1)c1ccccc1
inactive: dose: 12.5 mg/kg/injection, schedule: Q04DX002 (ip), vehicle: saline with Tween-80 97 % of control | dose: 25.0 mg/kg/injection, schedule: Q04DX002 (ip), vehicle: saline with Tween-80 94 % of control | dose: 50.0 mg/kg/injection, schedule: Q04DX002 (ip), vehicle: saline with Tween-80 94 % of control | dose: 100.0 mg/kg/injection, schedule: Q04DX002 (ip), vehicle: saline with Tween-80 106 % of control | dose: 200.0 mg/kg/injection, schedule: Q04DX002 (ip), vehicle: saline with Tween-80 96 % of control

COc1ccc(Cc2c3cc(OC)c(OC)cc3cc(=O)n2C)cc1OC
inactive: [7] 106 % of control | [8] 106 % of control

O=C(NC(=O)C(F)(F)C(F)(F)F)Nc1cccc(F)c1
inactive: [8] 106 % of control | [9] 100 % of control

O=C1NC(c2cccc(OCc3ccccc3)c2)Nc2ccccc21 (stereo unspecified)
inactive: dose: 3.13 mg/kg/injection, schedule: Q01DX009 (ip), vehicle: Klucel (hydroxypropylcellulose) (HPC) 94 % of control | dose: 6.25 mg/kg/injection, schedule: Q01DX009 (ip), vehicle: Klucel (hydroxypropylcellulose) (HPC) 107 % of control | dose: 12.5 mg/kg/injection, schedule: Q01DX009 (ip), vehicle: Klucel (hydroxypropylcellulose) (HPC) 102 % of control | [10] 100 % of control | [7] 109 % of control | [8] 115 % of control | [9] 102 % of control

C=C1[C@@H](O)C[C@@H]2C[C@@]3(C)[C@H](C(C)(C)C[C@@H]3O)C12O (stereo partly specified)
inactive: dose: 3.75 mg/kg/injection, schedule: Q01DX005 (ip), vehicle: saline 98 % of control | dose: 7.5 mg/kg/injection, schedule: Q01DX005 (ip), vehicle: saline 100 % of control | dose: 15.0 mg/kg/injection, schedule: Q01DX005 (ip), vehicle: saline 98 % of control

CCCCCCCCCCCCCCCC(=O)NCC(=O)NC1CC(OC2CC(O)(C(C)=O)Cc3c(O)c4c(c(O)c32)C(=O)c2c(OC)cccc2C4=O)OC(C)C1O (stereo unspecified)
inactive: dose: 0.75 mg/kg/injection, schedule: Q01DX009 (ip), vehicle: other 100 % of control | dose: 1.5 mg/kg/injection, schedule: Q01DX009 (ip), vehicle: other 103 % of control | dose: 3.0 mg/kg/injection, schedule: Q01DX009 (ip), vehicle: other 118 % of control

CC1(c2ccccc2)CCC(O)CC1CC(=O)O (stereo unspecified)
inactive: dose: 50.0 mg/kg/injection, schedule: Q01DX005 (ip), vehicle: saline with Tween-80 98 % of control | dose: 100.0 mg/kg/injection, schedule: Q01DX005 (ip), vehicle: saline with Tween-80 100 % of control | dose: 200.0 mg/kg/injection, schedule: Q01DX005 (ip), vehicle: saline with Tween-80 101 % of control

N#CCCCCC/C=C/CCCCCCC1C=CCC1 (stereo unspecified)
inactive: dose: 100.0 mg/kg/injection, schedule: Q01DX001 (ip), vehicle: saline 100 % of control | dose: 200.0 mg/kg/injection, schedule: Q01DX001 (ip), vehicle: saline 100 % of control | dose: 400.0 mg/kg/injection, schedule: Q01DX001 (ip), vehicle: saline 96 % of control

CCC1=CCC2C(=O)c3cc4ccccc4cc3C(=O)C2C1 (stereo unspecified)
inactive: dose: 6.25 mg/kg/injection, schedule: Q01DX005 (ip), vehicle: saline with Tween-80 103 % of control | dose: 12.5 mg/kg/injection, schedule: Q01DX005 (ip), vehicle: saline with Tween-80 108 % of control | dose: 25.0 mg/kg/injection, schedule: Q01DX005 (ip), vehicle: saline with Tween-80 108 % of control and 93 % of control

CC(C)(C#N)NNC(N)=S
inactive: dose: 3.12 mg/kg/injection, schedule: Q01DX009 (ip), vehicle: saline 103 % of control | dose: 6.25 mg/kg/injection, schedule: Q01DX009 (ip), vehicle: saline 100 % of control | dose: 12.5 mg/kg/injection, schedule: Q01DX009 (ip), vehicle: saline 87 % of control and 93 % of control | [11] 96 % of control | [12] 96 % of control | [13] 94 % of control

COC(=O)C(=O)C(C(=O)c1cccc2ccccc12)c1nc2n(c1O)C(=N)N=N2 (stereo unspecified)
inactive: [4] 109 % of control | [5] 104 % of control | [6] 100 % of control

O/N=C(/Cc1nc2cc(Cl)c(Cl)cc2nc1C/C(=N/O)c1ccc(Cl)cc1)c1ccc(Cl)cc1
inactive: [4] 99 % of control | [5] 99 % of control | [6] 107 % of control

c1ccc(-c2cc3cc4c(cc3[nH]2)Oc2ccccc2O4)cc1
inactive: dose: 17.5 mg/kg/injection, schedule: Q01DX009 (ip), vehicle: Klucel (hydroxypropylcellulose) (HPC) 100 % of control and 103 % of control and 109 % of control | dose: 35.0 mg/kg/injection, schedule: Q01DX009 (ip), vehicle: Klucel (hydroxypropylcellulose) (HPC) 100 % of control (2×) and 105 % of control | dose: 70.0 mg/kg/injection, schedule: Q01DX009 (ip), vehicle: Klucel (hydroxypropylcellulose) (HPC) 100 % of control and 103 % of control and 122 % of control | dose: 140.0 mg/kg/injection, schedule: Q01DX009 (ip), vehicle: Klucel (hydroxypropylcellulose) (HPC) 100 % of control

OCC1OC(n2cnc3cncnc32)C(O)C1O (stereo unspecified)
inactive: dose: 6.25 mg/kg/injection, schedule: Q01DX001 (ip), vehicle: saline 111 % of control | dose: 6.25 mg/kg/injection, schedule: Q04DX003 (ip), vehicle: saline 99 % of control | dose: 12.5 mg/kg/injection, schedule: Q01DX001 (ip), vehicle: saline 111 % of control | dose: 12.5 mg/kg/injection, schedule: Q04DX003 (ip), vehicle: saline 100 % of control | dose: 25.0 mg/kg/injection, schedule: Q01DX001 (ip), vehicle: saline 114 % of control | dose: 25.0 mg/kg/injection, schedule: Q04DX003 (ip), vehicle: saline 99 % of control | [11] 96 % of control and 97 % of control | [12] 100 % of control | [13] 104 % of control | dose: 400.0 mg/kg/injection, schedule: Q04DX003 (ip), vehicle: saline 104 % of control

CNC(=O)Nc1ccn(C(=O)NC)c(=O)n1
inactive: dose: 100.0 mg/kg/injection, schedule: Q04DX002 (ip), vehicle: Klucel (hydroxypropylcellulose) (HPC) 114 % of control | dose: 200.0 mg/kg/injection, schedule: Q04DX002 (ip), vehicle: Klucel (hydroxypropylcellulose) (HPC) 120 % of control

O=C1c2cc(Cl)ccc2-c2c(NC(=O)C(Cl)Cl)cc(Cl)cc21
inactive: [1] 95 % of control | [10] 100 % of control | [2] 95 % of control | [7] 88 % of control | [3] 100 % of control

CCOC(=O)NC(Cc1cc(OC)c(OC)cc1Br)c1ccc(OC)c(OC)c1OC (stereo unspecified)
inactive: dose: 100.0 mg/kg/injection, schedule: Q01DX001 (ip), vehicle: saline with Tween-80 91 % of control | dose: 200.0 mg/kg/injection, schedule: Q01DX001 (ip), vehicle: saline with Tween-80 94 % of control | dose: 400.0 mg/kg/injection, schedule: Q01DX001 (ip), vehicle: saline with Tween-80 91 % of control

O=c1[nH]c2c([N+](=O)[O-])cc(Cl)cc2nc1/C=C(\O)c1ccco1
inactive: [4] 101 % of control | [5] 89 % of control | [6] 92 % of control

NC1=C(O)C(=O)C(c2ccccc2O)O1 (stereo unspecified)
inactive: dose: 30.0 mg/kg/injection, schedule: Q01DX005 (ip), vehicle: suspension in saline 104 % of control | dose: 60.0 mg/kg/injection, schedule: Q01DX005 (ip), vehicle: suspension in saline 103 % of control | dose: 120.0 mg/kg/injection, schedule: Q01DX005 (ip), vehicle: suspension in saline 89 % of control and 97 % of control | dose: 240.0 mg/kg/injection, schedule: Q01DX005 (ip), vehicle: suspension in saline 88 % of control

CCOC(=O)N1CCNCC1
inactive: [12] 108 % of control | [13] 108 % of control

COC1C(/C=C2\CC(=O)N(c3ccccc3)C2=O)OC2OC(C)(C)OC21 (stereo unspecified)
inactive: dose: 100.0 mg/kg/injection, schedule: Q01DX001 (ip), vehicle: suspension in saline 97 % of control | dose: 200.0 mg/kg/injection, schedule: Q01DX001 (ip), vehicle: suspension in saline 102 % of control | dose: 400.0 mg/kg/injection, schedule: Q01DX001 (ip), vehicle: suspension in saline 100 % of control
